Measured values taken from PMC11476419, “Analysis of Punicalin and Punicalagin Interaction with PDIA3 and PDIA1” (International Journal of Molecular Sciences, 2024).

Tests used:
[1] = target: T1, PDIA1 (Homo sapiens, UniProt P07237); assay: Intrinsic tryptophan fluorescence quenching; type: binding
T1 construct: The mature human PDIA1 with an N-terminal His6x-tag was expressed and purified; His6 (N); made in house
Experimental: (§1) In a previous article, we evaluated the ability of punicalagin to interact with PDIA1 and PDIA3 [40]. In this study, the results previously obtained were compared with those obtained using punicalin. The protein–ligand interaction was evaluated by intrinsic quenching analysis due to the presence, in both proteins, of aromatic amino acids, among which tryptophan residues represent the main source. Quenching analysis was performed on PDIA1 and PDIA3, in the reduced form, by adding increasing concentrations of punicalin and recording the fluorescence spectra of both proteins. […] Quenching of intrinsic tryptophan fluorescence of both proteins was assessed using the Stern–Volmer equation, as previously reported. To further characterize the binding process, fluorescence data were analyzed using the equation described by Bi et al. and the reiterative calculation process described by Sun et al., providing an estimated value of the dissociation constant (Kd). The values of the Stern–Volmer constant (KSV) and the Kd obtained for punicalin are summarized in Table 1 and compared with those obtained for punicalagin [40]. The comparison of the results confirms that punicalin can bind both PDIs, although showing a slightly lesser affinity with respect to punicalagin.
(§2) The mature recombinant form (devoid of the N-terminal […]) of the human PDIA3 protein was expressed and purified according to the procedure previously described. […] In both cases, protein purification was evaluated by SDS-PAGE and Coomassie Blue staining, while the concentration was spectrophotometrically estimated using the extinction coefficient (PDIA3 in the reduced form, ε280 = 44,810 M^−1cm^−1; PDIA1 in the reduced form, ε280 = 45,567 M^−1cm^−1).
(§3) Protein–ligand interactions were evaluated by titration of intrinsic fluorescence quenching. Protein mission spectra were recorded by a SPEX-FluoroMax spectrofluorometer (Horiba Scientific, Piscataway, NJ, USA) from 300 to 400 nm, with an excitation wavelength set at 290 nm, emission slit set width, a 2 nm bandpass, and a scan speed set at 120 nm min^−1. […] The emission spectrum of the protein was recorded and the fluorescence intensities at 338 nm, obtained in at least three independent titration experiments, were used for quenching analyses, as previously described. Quenching of intrinsic tryptophan fluorescence at 338 nm was analyzed by the Stern–Volmer equation (Fo/F = 1 + KSV[L]), where F and Fo are the fluorescence intensity, respectively with or without ligand (L), and KSV is the Stern–Volmer constant value. Fluorescence data at 338 nm were also analyzed using the equation described by Bi et al. and the reiterative calculation process described by Sun et al., providing an estimated value of Kd.

[2] = target: T2, PDIA3 (Homo sapiens, UniProt P30101); assay: Intrinsic tryptophan fluorescence quenching; type: binding
T2 construct: The mature recombinant form (devoid of the N-terminal […]) of the human PDIA3 protein was expressed and purified; made in house
T2 sequence (P30101 25-505): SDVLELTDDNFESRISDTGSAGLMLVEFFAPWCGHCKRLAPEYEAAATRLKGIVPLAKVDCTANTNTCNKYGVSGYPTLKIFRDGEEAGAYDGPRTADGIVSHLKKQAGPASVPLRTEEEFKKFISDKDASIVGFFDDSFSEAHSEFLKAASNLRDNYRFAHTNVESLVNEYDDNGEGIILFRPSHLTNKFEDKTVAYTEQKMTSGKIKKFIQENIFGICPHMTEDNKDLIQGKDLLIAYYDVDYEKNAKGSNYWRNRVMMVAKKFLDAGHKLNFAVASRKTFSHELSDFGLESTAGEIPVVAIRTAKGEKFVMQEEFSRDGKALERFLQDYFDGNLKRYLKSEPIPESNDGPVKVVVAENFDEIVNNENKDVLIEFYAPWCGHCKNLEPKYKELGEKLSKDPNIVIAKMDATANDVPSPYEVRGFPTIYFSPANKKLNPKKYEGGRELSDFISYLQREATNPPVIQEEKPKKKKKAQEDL
Experimental: as §1, §2, §3

T1 sequence (P07237 18-508): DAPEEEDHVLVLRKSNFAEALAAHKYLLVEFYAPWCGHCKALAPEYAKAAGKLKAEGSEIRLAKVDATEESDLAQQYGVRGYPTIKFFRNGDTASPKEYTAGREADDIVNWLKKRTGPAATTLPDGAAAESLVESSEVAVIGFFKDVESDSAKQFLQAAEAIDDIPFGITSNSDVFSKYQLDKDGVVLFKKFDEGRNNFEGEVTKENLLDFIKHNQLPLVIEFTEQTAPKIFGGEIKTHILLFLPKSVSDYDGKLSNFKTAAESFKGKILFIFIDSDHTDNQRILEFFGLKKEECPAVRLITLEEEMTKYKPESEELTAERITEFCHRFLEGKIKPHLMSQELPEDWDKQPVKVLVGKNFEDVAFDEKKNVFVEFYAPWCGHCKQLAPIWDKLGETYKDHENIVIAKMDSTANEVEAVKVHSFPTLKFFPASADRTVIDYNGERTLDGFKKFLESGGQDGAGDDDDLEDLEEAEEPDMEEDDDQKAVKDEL

## O=C1OC[C@H]2OC(O)[C@H](O)[C@@H](O)[C@@H]2OC(=O)c2cc(O)c(O)c(O)c2-c2c(O)c(O)c3oc(=O)c4c(c(O)c(O)c5oc(=O)c2c3c54)-c2c1cc(O)c(O)c2O (mixture of isomers) [Punicalin, punicalin]
[1]; reduced PDIA1 0.1 × 10^−6 M, pH 7.4, 25 °C, mean and SEM
  Stern–Volmer constant (KSV): 64.0 ± 0.4 M^−1 × 10^3
[1]; reduced PDIA1, pH 7.4, 25 °C, estimated from quenching data, read-out: dissociation constant (Kd)
  Kd: 16 µM
[2]; reduced PDIA3 0.1 × 10^−6 M, pH 7.4, 25 °C, mean and SEM
  Stern–Volmer constant (KSV): 73.7 ± 0.7 M^−1 × 10^3
[2]; reduced PDIA3, pH 7.4, 25 °C, estimated from quenching data, read-out: dissociation constant (Kd)
  Kd: 14 µM
